4 compounds from article PMC8624998, “Synthesis and Antiproliferative Evaluation of 3-Chloroazetidin-2-ones with Antimitotic Activity: Heterocyclic Bridged Analogues of Combretastatin A-4” (Pharmaceuticals, 2021) can be followed below.

By IC50 is commonly meant the concentration at which inhibition is half-maximal. What is called GI50 is the concentration giving 50% growth inhibition.

Read-outs that look alike come from different tables or passages of the source.

One assay relates to SW480 cells. Briefly: Cell viability assay, antiproliferative activity. It is filed as cell-based, human. As to the method: […]. The corresponding values for 10e in these cell lines were 161 nM (HL-60), 55 nM (SW480) and 135 nM (HT-29). […] […]. SW480 colon cells expressed low levels of the UDP-glucuronosyltransferase (UGT) protein compared to expression levels in HT-29 cells. […] […].
The human breast carcinoma cell line MCF-7 was purchased from the European Collection of Animal Cell Cultures (ECACC). Triple negative breast cancer Hs578T cells and its invasive variant Hs578Ts(i)8 were a kind gift from Dr. Susan McDonnell, School of Chemical and Bioprocess Engineering, University College Dublin. U266 cells were a gift from Dr. Tony McElligott, School of Medicine, St James’s Hospital, Trinity College Dublin. HT-29 cells were purchased from the European Collection of Cell Cultures (originating from a human adenocarcinoma of the colon). The human breast carcinoma cell line MDA-MB-231 and the HL-60 cells derived from a patient with acute myeloid leukaemia were both obtained from ECACC (Salisbury, UK). The SW-480 cells were a kind gift from Dr. Brian Flood, School of Biochemistry and Immunology, Trinity College Dublin. HEK-293T (normal epithelial embryonic kidney cells) were cultured in Dulbecco’s Modified Eagle’s Medium (DMEM) with GlutaMAXTM-I in the absence of non-essential amino acids. Human breast cancer MCF-7 cells and multiple myeloma U266 cells were cultured in Minimum Essential Media (MEM) with GlutaMAX™-I, supplemented with 1% (v/v) non-essential amino acids, 10% 2(v/v) foetal bovine serum (FBS) and 1% (v/v) penicillin/streptomycin 5000 U/mL. MDA-MB-231 cells were maintained in DMEM supplemented with 10% (v/v) foetal bovine serum, 2 mM L-glutamine and 100 μg/mL penicillin/streptomycin (complete medium). Colon cancer HT-29 and SW-480 and triple negative breast cancer Hs578T and its invasive variant Hs578T8i were cultured in DMEM with GlutaMAX™-I, with the same supplement in the absence of non-essential amino acids. Leukaemia HL-60 cancer cells were cultured in Roswell Park Memorial Institute Media (RPMI-1640) with GlutaMAX™-I, supplemented with 10% FCS media, and 100 μg/mL penicillin/streptomycin as above. Cell numbers were monitored using a haemocytometer. Cell culture flasks were incubated in a humidified incubator (5% CO2/95% air) at 37 °C. All cell lines were sub-cultured three times per week with trypsinisation using TrypLE Express (1X) required for adherent cell lines.
. All stock solutions and serial dilution in ethanol/DMSO were stored at -20 °C. All cells were seeded at a density of 2.5 × 10^4 cells/mL in a 96-well plate (200 μL per well). The cells were incubated in a […] atmosphere at 37 °C for 24 h, then treated with test compound (2 μL of stock solutions per 200-microlitre well) in ethanol to obtain a concentration range of 1 nM–200 μM for the study. The plates were then re-incubated for a further 72 h. Control wells contained an equivalent volume of the vehicle ethanol or DMSO (1% v/v). MTT cell viability assay: The culture medium was removed, and the cells were washed with phosphate buffered saline (PBS, […]). MTT (dissolved in PBS, […]) was added to obtain a final concentration of MTT (1 mg/mL). Cells were incubated at 37 °C for 3 h in the dark. Solubilisation was commenced by the addition of DMSO ([…]) and the cells were maintained at 20 °C in the dark for 20 min before reading the absorbance to ensure complete colour diffusion. The absorbance value of control cells (no added compound) was set to 100% cell viability and absorbance versus cell density per well was determined to assess cell viability using Graph-Pad Prism software. AlamarBlue cell viability assay: Cells were seeded in 96-well plates (e.g., MCF-7, 5 × 10^3 cells/well) and (HT-29 cells, 1 × 10^3 cells/well) and (HL-60 cells, 1 × 10^4 cells/well) with a total volume per well of 200 µL. After 24 h, cells were treated in triplicate with serial dilutions of CA-4 or β-lactam analogues (0.001–100 μM), medium alone or vehicle (1% ethanol (v/v)). […]

Assay [1] relates to microtubule network of MCF-7 cells. Briefly: Immunofluorescence (confocal) of microtubule network. The settings on record: MCF-7, 16 h; 10n 0.05, 0.1, 0.5 μM; CA-4 10 nM; paclitaxel 1 μM. It is filed as cell-based, human. The method, then:
Subsequently, the effect of the representative compound 10n on the organisation of microtubule cytoskeleton of MCF-7 cells was also determined by confocal microscopy using an anti-tubulin antibody (Figure 8). […] The MCF-7 cell nuclei (stained blue) were also clearly observed (Figure 8A). […] The treatment of MCF-7 breast cancer cells with CA-4 tubulin-targeting agents has been reported to result in the formation of multiple micronuclei and mitotic catastrophes.
Confocal microscopy was used to study the effects on MCF-7 cytoskeleton following treatment with compound 10n following the protocols previously reported. For each experiment, all images were collected on the same day using identical parameters. MCF-7 cells were seeded (1 × 10^5 cells/mL) on eight chamber glass slides. Cells were either untreated or treated with vehicle (1% ethanol (v/v)), CA-4 (10 nM), Paclitaxel (1 μM) and β-lactam compound 10n at 50 nM, 100 nM and 500 nM concentrations for 16 h. The cells were then gently washed in PBS and then fixed for 30 min with 100% ice-cold MeOH. Cells were washed three times in PBS for 10 min and then permeabilised in 0.5% Triton X-100. The cells were subsequently washed in PBS containing 0.1% Tween (PBST), and then blocked in bovine serum albumin (5%) diluted in PBST. Cells were then incubated with a mouse monoclonal anti-α-tubulin−FITC antibody (clone DM1A) (1:200) for 2 h at 20 °C. Following washes in PBST, cells were incubated with Alexa Fluor 488 dye (1:500) for 1 h at 20 °C. Following further washes in PBST, the cells were mounted in Ultra Cruz Mounting Media, which contained 4,6-diamino-2-phenolindol dihydrochloride (DAPI). The images were photographed using Leica SP8 confocal microscopy with the Leica application suite X software program. Experiments were performed on three independent occasions.
Figure 8 Compound 10n depolymerises the microtubule network of MCF-7 breast cancer cells. Cells were treated with (A) vehicle control ([…]), (B) CA-4 (10 nM), (C) paclitaxel (1 μM) and compound 10n, (D) (50 nM), (E) (100 nM) and (F) (500 nM) for 16 h. […]

The test system of another assay is ACHN. As to the kind of experiment: NCI-60 5 dose screen, Renal Cancer. It is filed as cell-based. The settings on record: Homo sapiens.
In a further assay the test system is CAKI-1. Briefly: NCI-60 5 dose screen, Renal Cancer. It is filed as cell-based. Particulars: Homo sapiens.
[2] abbreviates: Homo sapiens, SW480, 72 h; read-out: SW480 IC50.

Consider `COc1ccc(/C=C\c2cc(OC)c(OC)c(OC)c2)cc1O` [CA-4, Combretastatin A-4], for which the IC50 in the assay on SW480 cells (setting [2]) was 3 ± 0.8 nM. Besides, in assay [1], the “effect on microtubule network” value was “extensive depolymerisation of tubulin”.

For `COc1ccc(C2N(c3cc(OC)c(OC)c(OC)c3)C(=O)C2(Cl)Cl)cc1O` (stereo not shown) [Compound 11n, 3,3-Dichloro-4-(3-hydroxy-4-methoxyphenyl)-1-(3,4,5-trimethoxyphenyl)azetidin-2-one], the IC50 in the assay on SW480 cells (Homo sapiens, SW480, 72 h, read-out: SW480 IC50) is 44 ± 8 nM. Also, the GI50 worked out at 51.1 nM in the assay on ACHN and 126 nM with CAKI-1.

As to `COc1ccc([C@H]2[C@H](Cl)C(=O)N2c2cc(OC)c(OC)c(OC)c2)cc1` (relative stereo) [Compound 10e trans, Trans-3-chloro-1-(3,4,5-trimethoxyphenyl)-4-(4-methoxyphenyl) azetidin-2-one], in the assay on SW480 cells (setting [2]), the IC50 was 55 ± 4 nM. In addition, the GI50 came to 97.1 nM with ACHN (read-out: GI50) and 122 nM with CAKI-1 (read-out: GI50).

On to `COc1ccc(C2C(Cl)C(=O)N2c2cc(OC)c(OC)c(OC)c2)cc1O` (stereo not shown) [Compound 10n, 3-Chloro-4-(3-hydroxy-4-methoxy-phenyl)-1-(3,4,5-trimethoxyphenyl)azetidin-2-one], for which, in the assay with SW480 cells (setting [2]), the IC50 came to 37 ± 5 nM. Also, the “effect on microtubule network” value in assay [1] is listed as “disorganised microtubule network”.
